According to patent US9051417B2, “Method for solubilizing carboxylic acid-containing compound in hydrocarbon solvent” (Dow Global Technologies LLC, priority 2013, dated 2015):

Experiment: Solubility measurement of acid chlorides containing one carboxylic acid moiety in hydrocarbon solvents with and without trialkylphosphate additives (saturated solutions, proton NMR)
Type: physicochemical
Conditions: saturated solution
From the text: Many embodiments of the invention have been described and in some instances certain embodiments, selections, ranges, constituents, or other features have been characterized as being “preferred.” Characterizations of “preferred” features should in no way be interpreted as deeming such features as being required, essential or critical to the invention. For purposes of this description, the terms “acyl halide” and “acid halide” have the same meaning. While much of the description has focused upon acyl chlorides, non-chloride halides are also included. The term “solubility limit” refers to the point at which no additional amount of a constituent, (e.g. water, reaction product, hydrocarbon reactant) is miscible or dissolvable with the hydrocarbon solvent or solution, as measured at 20° C. and 101 kPa. Unless otherwise stated, all solubility related parameters are determined at 20° C. and 101 kPa.
Solubility measurement of acid chlorides containing one carboxylic acid moiety in hydrocarbon solvents with and without solubility enhancing additives:
Saturated solutions of sample acid chlorides containing carboxylic acid moieties were prepared in hydrocarbon solvents with and without the presence of trialkylphosphate additives by adding more sample than will dissolve in the solvent and decanting the saturated solvent from the undissolved precipitate. The saturated solutions were evaluated by proton NMR. Deuterated Isopar L is not commercially available, thus all spectra were acquired in the unlocked condition using regular Isopar L. Because of the very high proton concentration in running a non-deuterated solvent, 60° pulse and minimum receiver gain were used to avoid receiver overflow. A relaxation delay of 8 seconds was used for complete signal recovery between scans. The spectral width was set to 20 ppm and the center of the spectrum was set to 5 ppm. Depending on the concentrations of the species of interest, 64-256 scans were used for signal averaging.
The area of the Isopar L peaks between 0.75 and 2.0 ppm were measure and divided by 26 (which represents the average H's present in Isopar L, assuming a molecular formula of C12H26) and multiplied by 170.33, the formula weight of C12H26. The peak area of the aromatic acid chlorides containing carboxylates are between 8.9-9.2 ppm and are well resolved from the Isopar solvent. The integration of one of the assigned peaks (for example, the triplet of mono-hydrolyzed TMC at 9.0 ppm represents a single proton) was used to determine the relative weight of the sample in the Isopar L solvent. The integration is divided by the number of protons it represents and multiplied by the formula weight of the compound it represents (for example, the triplet of mono-hydrolyzed TMC at 9.0 ppm would be divided by 1 and multiplied by 247.03 g/mol). The wt % of mono-hydrolyzed TMC in the saturated solution is determined by dividing the value obtained for mono-hydrolyzed TMC by the value obtained for Isopar L.
In the presence of tributylphosphate (TBP), the Isopar L value must be corrected since a few protons of TBP cannot be resolved from the Isopar L peaks. This is done by integrating the —OCH2-protons of TBP which are well resolved at ˜4.05 ppm, dividing this value by 6 (for 6 protons). This area value is then multiplied by 21 (represents the three —CH2CH2CH3 that are unresolved from the Isopar L peak) and subtracted from the peak area of Isopar L.

[1] = solvent Isopar L, 20° C. and 101 kPa

| SMILES | Solubility (solvent 80/20 Isopar L/Toluene + 0.25 wt % TBP) [wt %] | Solubility (solvent 80/20 Isopar L/Toluene) [wt %] | Solubility (solvent Isopar L + 1 wt % TEHP) [wt %] | Solubility (solvent Isopar L + 1 wt % TEP) [wt %] | Solubility [1] [wt %] | Solubility (solvent Isopar L + 0.47 wt % TBP) [wt %] |
| --- | --- | --- | --- | --- | --- | --- |
| O=C(O)c1cc(C(=O)Cl)cc(C(=O)Cl)c1 [mhTMC, mono-hydrolyzed trimesoyl chloride] | 0.29 | 0.05 | 0.11 | 0.2 | 0.02 |  |
| O=C(O)c1cccc(C(=O)Cl)c1 [mhIPC] |  |  |  |  | <0.02 | 0.29 |
